Earlier results on one compound are cited in patent US20030109682A1, “Maytansines and maytansine conjugates” (priority 2001, published 2003).

The conditions of data set [1]: Phase II trials.
The test system of data set [2] is acute lymphocytic leukemia, breast carcinoma, ovarian cancer, thymoma, melanoma, and non-small scale lung cancer. Particulars: Phase I, patients with acute lymphocytic leukemia.

Turning to `COc1cc2cc(c1Cl)N(C)C(=O)C[C@H](OC(=O)[C@H](C)N(C)C(C)=O)[C@]1(C)O[C@H]1[C@H](C)[C@@H]1C[C@@](O)(NC(=O)O1)[C@H](OC)/C=C/C=C(\C)C2` [Maytansine], in data set [1], the gastrointestinal toxicity result was “manageable gastrointentinal toxicity” and the “neurotoxicity at the site of administration” value was “pain of such magnitude as to prevent further administration”. Moreover, in data set [2], the clinical response entry is “encouraging responses”.
